≈ marks a conversion by molar mass, not a printed value. Entries after “also recorded” stand apart in the source; their conditions may differ. Where two headings read alike, the source gives them in different places.
What was measured:
[1] = test system: Escherichia coli (ATCC8739); conditions: comparator agents (#3A-#6E), previously reported; cited from earlier work
[2] = test system: human red blood cells; conditions: cited from earlier work
[3] = test system: Candida albicans (ATCC10231); experiment: Minimal inhibitory concentration (MIC), twofold broth dilution; type: cell-based; conditions: fungi; lowest concentration inhibiting growth by more than 90%
Protocol: (§1) Bacteria cells were grown overnight at 37° C. in MH broth to a mid-log phase and diluted to 10^4 to 10^5 CFU ml^−1. A twofold dilution series of 100 μl product solution in MH broth (YM broth for the fungi C. albicans and F. solani) was made on 96-well microplate, followed by the addition of 100 μl bacterial suspension (10^4 to 10^5 CFU mL^−1). The plates were incubated at 37° C. for 18-24 h (28° C., 36-48 h for fungi), and the absorbance at 600 nm was measured with a microplate reader (BIO-RAD, US). Positive control was without product, and negative control was without bacteria/fungi inoculum. MICs were determined as the lowest concentration that inhibited cell growth by more than 90%.

[4] = test system: Escherichia coli (ATCC8739); experiment: as above; type: cell-based; conditions: Gram-negative; lowest concentration inhibiting growth by more than 90%
Protocol: as §1

[5] = test system: Fusarium solani (ATCC36031); experiment: as above; type: cell-based; conditions: fungi; lowest concentration inhibiting growth by more than 90%
Protocol: as §1

[6] = test system: Pseudomonas aeruginosa (ATCC9027); experiment: as above; type: cell-based; conditions: Gram-negative; lowest concentration inhibiting growth by more than 90%
Protocol: as §1

[7] = test system: Staphylococcus aureus (ATCC6538); experiment: as above; type: cell-based; conditions: Gram-positive; lowest concentration inhibiting growth by more than 90%
Protocol: as §1

[8] = test system: human red blood cells; experiment: Hemolysis assay; type: cell-based; conditions: for HC50 (the concentration which is 50% hemolytic): human erythrocytes, 1 h at 37° C.
Protocol: Fresh human blood (5 ml) was collected from a healthy donor. Erythrocytes were separated by centrifugation at 1000 rpm for 10 min, washed three times with Tris buffer (10 mM Tris, 150 mM NaCl, pH 7.2) and diluted to final concentration (5%, v/v). 50 μl of antimicrobial solution at different concentrations mixed with 50 μl erythrocytes stock were added to a 96-well microplate and incubated for 1 h at 37° C. with 150 rpm shaking. The microplate were centrifuged at 1,000 rpm for 10 min. 80 μl aliquots of the supernatant were then transferred to a new 96-well microplate and diluted with another 80 μl of Tris buffer. Hemolysis was measured as the absorbance at 540 nm with a microplate reader (BIO-RAD, US). Complete hemolysis was determined in Tris buffer plus 0.1% Triton x-100 as positive control, while Tris buffer was used as negative control. The percentage of hemolysis (H) was calculated using the following equation: Hemolysis=[(Op−Ob)/(Ot−Ob)]×100%, where Op is the density for a given antimicrobial agent concentration, Ob is the density for the buffer, and Ot is the density for the Triton x-100 positive control.

[9] = test system: the three bacteria (P. aeruginosa, E. coli, S. aureus); experiment: MIC, summarised over the bacterial pathogens; type: cell-based; conditions: for MIC against the bacterial pathogens: lower bound over the three bacteria
Protocol: as §1

[10] = test system: all tested bacteria and fungi (P. aeruginosa, E. coli, S. aureus, C. albicans, F. solani); experiment: MIC, summarised over all pathogens tested; type: cell-based; conditions: for MICs for all pathogens tested: range over Gram-negative, Gram-positive bacteria and fungi
Protocol: as §1

[11] = test system: E. coli, P. aeruginosa, S. aureus, C. albicans, F. solani cells; experiment: Morphology study of microorganisms (FESEM); type: cell-based; conditions: at MIC concentration, 15 min treatment, compared with intact controls
Protocol: After incubation the microbes were immediately fixed with glutaraldehyde (2.5%, 5 ml) solution for 4 hr. Following dehydration in a graded ethanol series (20%-100%) and drying under a nitrogen flow, the samples were coated with platinum and imaged with FESEM (JEOL JSM-6700F) for microbe morphology changes.

[12] = test system: E. coli; experiment: LIVE/DEAD bacterial viability assay; type: cell-based, Escherichia coli; conditions: at MIC concentration, 15 min at 37° C.
Protocol: LIVE/DEAD assay was carried out using CS-g-K16 with E. coli. […] After incubation the cells were collected by centrifugation and stained with BacLight bacterial viability kit L13152 (Invitrogen) for 30 min at room temperature. The cells were then imaged with fluorescence microscopy (Carl Zeiss, Germany).

[13] = test system: E. coli membrane; experiment: Membrane depolarization, DiSC3(5) dye leakage; type: cell-based, Escherichia coli; conditions: 100 μg ml^−1
Protocol: Bacteria were harvested at mid-log phase, washed three times with a buffer solution of 20 mM glucose and 5 mM HEPES (pH 7.4). The bacteria was resuspended in the washing buffer with additional 0.1 M KCl, then incubated with DiSC3(5) (20 nM) until it was incorporated into the cell membrane. The CS-g-K16 was added at a concentration of 100 μg ml^−1, and the fluorescence was monitored with a fluorescence spectrometer (PerkinElmer LS55, U.S.) at λex=620 nm and λem=670 nm. Finally, 0.2 nM Gramicidin D was added to obtain the full release of the dye.

[14] = test system: SMCs and E. coli co-culture; experiment: Co-culture of bacteria and mammalian cells; type: cell-based; conditions: 100 μg ml^−1, 6 h after inoculation of 1×10^5 E. coli
Protocol: SMCs were cultured in 96-well plates from inocula of 1×10^5 cells in each well and incubated at 37° C. for 24 h in a culture medium free of any antibiotics. 1×10^5 cells E. coli was seeded in the SMC culture wells. Then CS-g-K16 was added in the SMC and E. coli co-culture wells at a concentration of 100 μg ml^−1. Wells without CS-g-K16 were used as a control. The co-culture was imaged using an inverted optical microscope (Carl Zeiss, Germany).

Compound | MIC C. albicans [3] [µg/mL] | MIC E. coli [4] [µg/mL] | MIC F. solani [5] [µg/mL] | MIC P. aeruginosa [6] [µg/mL] | MIC S. aureus [7] [µg/mL] | also measured
CC[C@H](C)[C@H](NC(=O)CN)C(=O)NCC(=O)N[C@@H](C)C(=O)N[C@H](C(=O)N[C@@H](CC(C)C)C(=O)N[C@@H](CCCCN)C(=O)N[C@H](C(=O)N[C@@H](CC(C)C)C(=O)N[C@H](C(=O)N[C@H](C(=O)NCC(=O)N[C@@H](CC(C)C)C(=O)N1CCC[C@H]1C(=O)N[C@@H](C)C(=O)N[C@@H](CC(C)C)C(=O)N[C@H](C(=O)N[C@@H](CO)C(=O)N[C@@H](Cc1c[nH]c2ccccc12)C(=O)N[C@H](C(=O)N[C@@H](CCCCN)C(=O)N[C@@H](CCCNC(=N)N)C(=O)N[C@@H](CCCCN)C(=O)N[C@@H](CCCNC(=N)N)C(=O)N[C@@H](CCC(N)=O)C(=O)N[C@@H](CCC(N)=O)C(N)=O)[C@@H](C)CC)[C@@H](C)CC)[C@@H](C)O)[C@@H](C)O)C(C)C)C(C)C [Melittin] | – | – | – | – | – | MIC E. coli [1]: 13 µg/mL (≈ 4.57 µM); HC50 (the concentration which is 50% hemolytic) ([2]; comparator agents (#3A-#6E), previously reported): 2 µg/mL
Magainin-2 | – | – | – | – | – | MIC E. coli [1]: 125 µg/mL; HC50 (the concentration which is 50% hemolytic) [2]: >250 µg/mL
chitosan-graft-poly(lysine-ran-phenylalanine) [CS-g-K8F8] | >2500 | >2500 | 160 | >2500 | 2500 | HC50 (the concentration which is 50% hemolytic) [8]: 12500 µg/mL; MIC against the bacterial pathogens [9]: ≥ 2500 µg/mL
chitosan-graft-poly(lysine-ran-phenylalanine) [CS-g-K12.5F12.5] | 310 | 630 | 80 | 1250 | 1250 | HC50 (the concentration which is 50% hemolytic) [8]: 7500 µg/mL; increase of MICs compared with P(K12.5F12.5) (#5B) ([9]; for the three bacteria): more than 5 times; MIC against the bacterial pathogens [9]: ≥ 630 µg/mL
chitosan-graft-polylysine [CS-g-K1] | 40 | 80 | 40 | 80 | 160 | –
chitosan-graft-polylysine [CS-g-K3-HMW] | 160 | 80 | 40 | 310 | 160 | MICs relative to those of CS-g-K3 (#1B) ([10]; same grafting ratio of lysine, higher molecular weight chitosan, all five pathogens): ≥ 4 fold
chitosan-graft-polylysine [CS-g-K3] | 20 | 20 | 10 | 20 | 40 | –
chitosan-graft-polylysine [CS-g-K9] | 20 | 10 | 5 | 20 | 20 | MICs for all pathogens tested [10]: 5 to 20 µg/mL
chitosan-graft-polylysine [CS-g-K16] | 20 | 10 | 5 | 20 | 10 | HC50 compared with other state-of-the-art antimicrobial polymers [8]: 3 to 5 orders of magnitude; hemolytic percentage [8]: below 50%; MICs for all pathogens tested [10]: 5 to 20 µg/mL; MICs against Gram-negative and Gram-positive bacteria and fungi ([10]; range over all pathogens): 5-20 μml^−1; morphology of microbial cells (FESEM) [11]: exhibit obvious morphological changes; bacterial viability by LIVE/DEAD stain (SYTO 9 / propidium iodide) [12]: renders E. coli cell membrane permeable to propidium iodide; membrane potential sensitive dye DiSC3(5) leakage [13]: immediate fluorescence increase; bacterial growth and SMCs growth in co-culture [14]: inhibits the bacterial growth but permits SMCs growth; also recorded: bacteria were inhibited and SMCs grew well
chitosan-graft-polylysine [CS-g-K25] | 20 | 10 | 5 | 40 | 10 | –
